Calls of active or inactive are those of the source.
How the values were obtained:
[1] = biological target: FAD-linked sulfhydryl oxidase ALR (Homo sapiens, UniProt P55789); test: inhibitors of human ALR sulfhydryl oxidase, dose response, biochemical, H2O2 detection, luminescence, cherry-pick (AID 493248)
[2] = system: H9c2; test: cells; assay type: functional, cell-based; conditions: Rattus norvegicus, H9c2, Myocardium;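 note: confirmatory concentration-response retest of ultra-high-throughput screening hits for modulation of myocardial damage; cell death induced by hydrogen peroxide oxidative stress; compound pretreatment for 60 min then peroxide exposure for 2 h; potency is for protecting the cells against peroxide damage rather than for killing them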
[3] = biological target: Luciferin 4-monooxygenase (Photinus pyralis, UniProt P08659); test: firefly luciferase enzyme inhibitors, dose response, biochemical, luminescence (AID 1891)
Chain of Luciferin 4-monooxygenase (P08659 whole entry): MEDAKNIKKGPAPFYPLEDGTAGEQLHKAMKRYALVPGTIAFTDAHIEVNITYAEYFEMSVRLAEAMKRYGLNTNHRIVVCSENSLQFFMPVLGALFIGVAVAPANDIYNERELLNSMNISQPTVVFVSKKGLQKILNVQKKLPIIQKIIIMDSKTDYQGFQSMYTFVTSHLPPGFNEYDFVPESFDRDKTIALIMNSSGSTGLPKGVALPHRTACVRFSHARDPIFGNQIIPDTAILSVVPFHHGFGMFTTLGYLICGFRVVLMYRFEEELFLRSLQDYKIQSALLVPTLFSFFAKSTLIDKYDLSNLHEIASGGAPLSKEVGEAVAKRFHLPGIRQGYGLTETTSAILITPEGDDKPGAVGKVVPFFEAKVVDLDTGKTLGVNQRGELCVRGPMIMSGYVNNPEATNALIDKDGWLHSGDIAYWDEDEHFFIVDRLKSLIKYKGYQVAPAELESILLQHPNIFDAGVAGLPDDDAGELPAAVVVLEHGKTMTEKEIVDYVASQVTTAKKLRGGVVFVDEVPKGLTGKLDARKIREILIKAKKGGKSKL

[4] = Luminescence Cell-Based Dose Confirmation HTS to Identify Inhibitors of Platelet Dense Granule Release. [Related pubchem assays: 1663 (Primary HTS), 1678 (Summary of Project)]; assay type: functional
[5] = biological target: T1, Replicative DNA helicase DnaB (Mycobacterium tuberculosis, UniProt P9WMR3); test: DnaB intein splicing inhibitors, dose response, biochemical, cell-free fluorescence (AID 449749); assay type: functional
T1 sequence (P9WMR3 whole entry): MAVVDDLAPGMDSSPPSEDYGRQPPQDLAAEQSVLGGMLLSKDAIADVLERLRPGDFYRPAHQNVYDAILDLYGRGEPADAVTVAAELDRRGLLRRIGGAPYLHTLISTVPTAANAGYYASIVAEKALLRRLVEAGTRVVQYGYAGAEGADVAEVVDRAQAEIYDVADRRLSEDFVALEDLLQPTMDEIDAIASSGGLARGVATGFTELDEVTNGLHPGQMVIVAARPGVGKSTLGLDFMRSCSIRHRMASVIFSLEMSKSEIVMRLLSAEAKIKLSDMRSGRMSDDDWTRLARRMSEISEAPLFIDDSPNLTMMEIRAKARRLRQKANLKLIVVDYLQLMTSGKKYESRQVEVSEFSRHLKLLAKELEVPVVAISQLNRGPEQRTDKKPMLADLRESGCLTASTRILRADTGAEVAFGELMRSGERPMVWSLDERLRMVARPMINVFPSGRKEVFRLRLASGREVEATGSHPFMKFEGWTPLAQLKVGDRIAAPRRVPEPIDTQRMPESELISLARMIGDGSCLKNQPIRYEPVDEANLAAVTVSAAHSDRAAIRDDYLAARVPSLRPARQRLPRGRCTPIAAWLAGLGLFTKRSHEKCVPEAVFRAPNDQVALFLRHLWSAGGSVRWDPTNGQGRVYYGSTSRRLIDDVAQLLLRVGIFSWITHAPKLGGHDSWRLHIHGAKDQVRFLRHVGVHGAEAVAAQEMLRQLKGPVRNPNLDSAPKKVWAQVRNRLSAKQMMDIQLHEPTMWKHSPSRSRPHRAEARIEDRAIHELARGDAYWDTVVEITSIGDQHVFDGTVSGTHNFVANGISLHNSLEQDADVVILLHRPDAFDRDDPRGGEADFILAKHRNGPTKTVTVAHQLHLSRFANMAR

[6] = biological target: T2, Protein RecA (Mycobacterium tuberculosis, UniProt P9WHJ3); test: Fluorescence Cell-Free Homogeneous Dose Retest to Identify Inhibitors of RecA-Intein Splicing Activity. [Related pubchem assays (depositor defined):AID2097, AID2223, AID489010, AID492950]; assay type: functional
T2 sequence (P9WHJ3 whole entry): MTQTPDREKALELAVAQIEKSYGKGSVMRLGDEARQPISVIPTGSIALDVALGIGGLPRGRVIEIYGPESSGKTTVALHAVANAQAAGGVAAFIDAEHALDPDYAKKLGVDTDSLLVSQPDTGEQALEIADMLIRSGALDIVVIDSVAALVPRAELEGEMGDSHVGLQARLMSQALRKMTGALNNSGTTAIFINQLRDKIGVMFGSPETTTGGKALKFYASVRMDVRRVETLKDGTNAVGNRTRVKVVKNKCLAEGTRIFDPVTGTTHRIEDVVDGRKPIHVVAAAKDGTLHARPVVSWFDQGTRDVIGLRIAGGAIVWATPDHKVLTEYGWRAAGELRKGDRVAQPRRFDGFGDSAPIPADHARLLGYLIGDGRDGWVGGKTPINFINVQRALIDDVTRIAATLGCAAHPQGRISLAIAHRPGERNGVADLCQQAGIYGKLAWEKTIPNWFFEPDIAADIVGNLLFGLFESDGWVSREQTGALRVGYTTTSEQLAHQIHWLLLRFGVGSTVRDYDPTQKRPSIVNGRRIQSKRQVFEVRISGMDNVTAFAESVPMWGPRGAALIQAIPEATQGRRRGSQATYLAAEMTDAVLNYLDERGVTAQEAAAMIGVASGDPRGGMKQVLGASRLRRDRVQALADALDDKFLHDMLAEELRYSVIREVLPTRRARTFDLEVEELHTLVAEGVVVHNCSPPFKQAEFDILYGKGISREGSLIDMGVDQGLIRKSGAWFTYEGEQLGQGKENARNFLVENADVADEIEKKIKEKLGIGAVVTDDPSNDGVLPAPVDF

[7] = biological target: Genome polyprotein (dengue virus type 2, UniProt P29990); test: Dengue-2 NS5 methyltransferase inhibitors, primary screen, biochemical, confirmation dose response (AID 588689); assay type: functional
Chain of Genome polyprotein (P29990 2492-3391 limits assumed): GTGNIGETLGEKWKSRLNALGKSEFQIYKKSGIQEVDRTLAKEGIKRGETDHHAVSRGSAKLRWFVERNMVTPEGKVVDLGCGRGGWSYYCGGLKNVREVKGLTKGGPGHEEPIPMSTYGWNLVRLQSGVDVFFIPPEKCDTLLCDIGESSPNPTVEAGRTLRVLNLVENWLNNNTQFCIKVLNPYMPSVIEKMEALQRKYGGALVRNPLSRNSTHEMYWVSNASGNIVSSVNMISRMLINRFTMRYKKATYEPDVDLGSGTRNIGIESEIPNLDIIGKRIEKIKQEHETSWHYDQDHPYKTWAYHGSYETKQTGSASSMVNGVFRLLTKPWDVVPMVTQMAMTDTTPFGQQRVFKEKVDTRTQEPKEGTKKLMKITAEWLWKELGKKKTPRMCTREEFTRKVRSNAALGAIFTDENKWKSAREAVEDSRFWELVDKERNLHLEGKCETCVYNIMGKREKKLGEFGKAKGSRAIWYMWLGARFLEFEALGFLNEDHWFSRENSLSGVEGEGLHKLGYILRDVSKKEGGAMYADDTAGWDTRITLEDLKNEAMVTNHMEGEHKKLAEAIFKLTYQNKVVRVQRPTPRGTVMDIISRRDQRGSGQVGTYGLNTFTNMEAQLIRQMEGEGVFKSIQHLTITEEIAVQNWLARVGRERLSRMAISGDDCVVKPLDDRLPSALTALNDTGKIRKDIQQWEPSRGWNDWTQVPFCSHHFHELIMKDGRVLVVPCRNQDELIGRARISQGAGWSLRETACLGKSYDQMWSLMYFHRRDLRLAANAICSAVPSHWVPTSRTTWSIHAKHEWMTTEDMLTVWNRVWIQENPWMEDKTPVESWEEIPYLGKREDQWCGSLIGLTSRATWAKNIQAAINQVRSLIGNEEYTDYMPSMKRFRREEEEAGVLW

[8] = biological target: T3, Fatty acid synthase (Homo sapiens, UniProt P49327); test: FAS thioesterase domain inhibitors, dose response, biochemical, endpoint fluorescence intensity, uHTS hits (AID 624327); assay type: functional;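 note: fluorescence from hydrolysis of an O-methyl fluorescein acyl ester substrate by the enzyme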
T3 sequence (P49327 whole entry, the tested form may be a part): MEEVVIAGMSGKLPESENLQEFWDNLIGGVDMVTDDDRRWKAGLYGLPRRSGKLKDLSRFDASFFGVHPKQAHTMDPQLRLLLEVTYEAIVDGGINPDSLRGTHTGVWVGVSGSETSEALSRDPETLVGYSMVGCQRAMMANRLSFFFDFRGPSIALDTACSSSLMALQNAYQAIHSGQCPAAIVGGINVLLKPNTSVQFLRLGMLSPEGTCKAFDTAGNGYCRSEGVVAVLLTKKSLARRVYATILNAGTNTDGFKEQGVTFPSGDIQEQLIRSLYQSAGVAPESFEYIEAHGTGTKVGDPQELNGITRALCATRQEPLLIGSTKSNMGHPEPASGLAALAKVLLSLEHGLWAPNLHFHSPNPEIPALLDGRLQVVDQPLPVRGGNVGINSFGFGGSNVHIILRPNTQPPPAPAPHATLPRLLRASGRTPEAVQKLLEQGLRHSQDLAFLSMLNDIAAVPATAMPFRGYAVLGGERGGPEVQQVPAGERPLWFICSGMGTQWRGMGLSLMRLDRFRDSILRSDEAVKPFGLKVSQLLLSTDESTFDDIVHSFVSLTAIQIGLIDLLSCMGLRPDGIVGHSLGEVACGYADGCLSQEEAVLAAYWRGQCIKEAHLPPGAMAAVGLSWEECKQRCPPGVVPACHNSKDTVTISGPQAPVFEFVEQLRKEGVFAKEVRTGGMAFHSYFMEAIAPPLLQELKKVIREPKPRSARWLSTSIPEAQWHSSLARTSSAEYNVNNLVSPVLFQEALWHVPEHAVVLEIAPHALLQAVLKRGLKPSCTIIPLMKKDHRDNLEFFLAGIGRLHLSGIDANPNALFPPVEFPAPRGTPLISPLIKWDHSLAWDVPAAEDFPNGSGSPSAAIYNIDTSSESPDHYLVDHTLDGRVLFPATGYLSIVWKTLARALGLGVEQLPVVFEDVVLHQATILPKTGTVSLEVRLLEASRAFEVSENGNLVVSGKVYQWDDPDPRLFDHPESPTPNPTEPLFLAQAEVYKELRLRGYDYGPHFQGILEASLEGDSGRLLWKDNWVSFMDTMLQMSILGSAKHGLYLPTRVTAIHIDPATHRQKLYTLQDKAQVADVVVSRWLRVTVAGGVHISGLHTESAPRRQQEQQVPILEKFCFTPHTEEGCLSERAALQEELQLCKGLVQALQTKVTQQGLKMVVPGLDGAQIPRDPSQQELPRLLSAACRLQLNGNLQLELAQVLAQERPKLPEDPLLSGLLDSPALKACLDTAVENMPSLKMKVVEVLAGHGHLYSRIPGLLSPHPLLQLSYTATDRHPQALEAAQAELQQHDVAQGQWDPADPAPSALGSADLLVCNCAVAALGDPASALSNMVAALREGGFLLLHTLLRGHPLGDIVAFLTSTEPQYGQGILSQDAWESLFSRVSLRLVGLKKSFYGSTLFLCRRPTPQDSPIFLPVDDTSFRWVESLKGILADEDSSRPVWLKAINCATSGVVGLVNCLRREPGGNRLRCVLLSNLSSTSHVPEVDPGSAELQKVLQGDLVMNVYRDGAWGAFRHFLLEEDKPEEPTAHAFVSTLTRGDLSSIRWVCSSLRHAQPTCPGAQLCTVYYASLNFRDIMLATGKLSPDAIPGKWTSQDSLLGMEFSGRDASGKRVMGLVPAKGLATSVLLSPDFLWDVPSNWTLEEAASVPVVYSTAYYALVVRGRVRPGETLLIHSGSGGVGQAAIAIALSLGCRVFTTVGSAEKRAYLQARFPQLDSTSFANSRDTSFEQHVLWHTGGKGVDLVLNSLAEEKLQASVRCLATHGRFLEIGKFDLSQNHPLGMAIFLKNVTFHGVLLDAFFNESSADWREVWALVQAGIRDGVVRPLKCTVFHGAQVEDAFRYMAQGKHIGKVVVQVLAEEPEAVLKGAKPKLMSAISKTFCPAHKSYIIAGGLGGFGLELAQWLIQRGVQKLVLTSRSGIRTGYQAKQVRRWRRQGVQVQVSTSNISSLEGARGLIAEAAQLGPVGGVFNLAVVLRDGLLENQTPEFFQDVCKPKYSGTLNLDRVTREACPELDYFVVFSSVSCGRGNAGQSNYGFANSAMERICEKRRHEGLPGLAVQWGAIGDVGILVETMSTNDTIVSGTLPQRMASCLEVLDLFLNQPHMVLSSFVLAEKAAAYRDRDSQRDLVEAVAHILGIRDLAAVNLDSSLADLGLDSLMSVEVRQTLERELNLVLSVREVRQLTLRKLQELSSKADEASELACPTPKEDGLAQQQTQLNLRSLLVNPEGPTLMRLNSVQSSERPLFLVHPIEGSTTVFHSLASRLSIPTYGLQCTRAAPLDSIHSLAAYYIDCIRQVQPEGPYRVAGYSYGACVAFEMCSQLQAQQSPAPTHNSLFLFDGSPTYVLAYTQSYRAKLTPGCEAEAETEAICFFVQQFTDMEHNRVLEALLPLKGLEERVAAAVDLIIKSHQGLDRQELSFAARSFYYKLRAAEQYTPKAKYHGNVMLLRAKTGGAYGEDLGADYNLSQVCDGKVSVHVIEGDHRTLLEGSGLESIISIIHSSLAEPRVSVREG

[9] = biological target: T3, Fatty acid synthase; test: FAS thioesterase domain inhibitors, dose response, biochemical, kinetic fluorescence intensity (AID 624326); assay type: functional;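 note: rate of fluorescence rise from hydrolysis of a fluorogenic O-methyl fluorescein ester substrate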
[10] = biological target: Heat shock protein HSP 90-alpha (Homo sapiens, UniProt P07900); assay type: functional, organism-based
[11] = biological target: T4, Polyadenylate-binding protein 1 (Homo sapiens, UniProt P11940); test: PABP1 MLLE–PAM2 interaction inhibitors, dose response, miRNA deadenylation inhibitor project, biochemical, fluorescence polarization, Cy5-PAM2 peptide, secondary (AID 602260); assay type: functional; conditions: read-out: IC50_Mean
T4 sequence (P11940 whole entry): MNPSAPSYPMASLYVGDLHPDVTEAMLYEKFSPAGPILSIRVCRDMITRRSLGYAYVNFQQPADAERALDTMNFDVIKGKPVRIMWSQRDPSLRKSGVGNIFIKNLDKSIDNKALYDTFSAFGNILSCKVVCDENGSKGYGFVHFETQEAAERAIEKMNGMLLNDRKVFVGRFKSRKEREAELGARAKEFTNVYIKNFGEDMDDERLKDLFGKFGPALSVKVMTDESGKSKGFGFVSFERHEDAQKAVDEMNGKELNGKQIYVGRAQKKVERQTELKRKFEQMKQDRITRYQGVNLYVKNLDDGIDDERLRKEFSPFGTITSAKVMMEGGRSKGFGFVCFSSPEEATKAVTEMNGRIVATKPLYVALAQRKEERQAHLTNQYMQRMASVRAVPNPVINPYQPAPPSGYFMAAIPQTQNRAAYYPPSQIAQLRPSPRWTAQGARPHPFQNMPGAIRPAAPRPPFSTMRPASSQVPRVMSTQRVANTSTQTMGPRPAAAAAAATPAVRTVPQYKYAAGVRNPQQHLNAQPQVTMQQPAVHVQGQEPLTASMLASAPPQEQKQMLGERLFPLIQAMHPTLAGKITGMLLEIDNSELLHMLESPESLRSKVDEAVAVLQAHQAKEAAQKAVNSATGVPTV

[12] = biological target: T4, Polyadenylate-binding protein 1; test: PABP1 MLLE–PAM2 binding inhibitor potency, dose response, biochemical, fluorescence polarization, FITC-PAM2 peptide (AID 602259); assay type: functional; conditions: read-out: IC50_Mean
[13] = biological target: T5, Heat shock factor protein 1 (Mus musculus, UniProt P38532); test: inhibition of MG132-induced HSE-luciferase signal, confirmation, cell-based, NIH3T3, luminescence, dose retest (AID 2382); assay type: functional;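 note: NIH3T3 fibroblasts with HSF1-driven luciferase reporter stressed by proteasome inhibitor MG132; luminescence from HSF1-driven luciferase expression after 8 hours of MG132 stress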
T5 sequence (P38532 whole entry): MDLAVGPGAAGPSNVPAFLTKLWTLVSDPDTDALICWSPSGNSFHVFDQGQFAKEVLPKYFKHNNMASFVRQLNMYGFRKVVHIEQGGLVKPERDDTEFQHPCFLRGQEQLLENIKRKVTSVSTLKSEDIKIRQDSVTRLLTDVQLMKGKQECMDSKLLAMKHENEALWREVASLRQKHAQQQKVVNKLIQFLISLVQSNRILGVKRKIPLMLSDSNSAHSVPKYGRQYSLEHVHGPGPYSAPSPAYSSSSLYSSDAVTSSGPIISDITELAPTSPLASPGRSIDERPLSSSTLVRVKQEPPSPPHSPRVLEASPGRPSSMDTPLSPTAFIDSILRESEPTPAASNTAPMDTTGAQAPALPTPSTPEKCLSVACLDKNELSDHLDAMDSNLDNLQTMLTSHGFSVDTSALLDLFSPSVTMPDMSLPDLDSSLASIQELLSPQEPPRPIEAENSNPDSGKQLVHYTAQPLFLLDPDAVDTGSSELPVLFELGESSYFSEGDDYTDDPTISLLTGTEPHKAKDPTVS

[14] = inhibitors of firefly luciferase expression or activity, dose response, H4 neuroglioma cells, luminescence (AID 1990); assay type: functional, cell-based
[15] = Luminescence Cell-Based Dose Response HTS to Identify Inhibitors of 5'UTR Stem-Loop Driven Prion Protein mRNA Translation in H4 Neuroglioblastoma Cells. [Related pubchem assays: 1827 (Project Summary), 1813 (Primary HTS)]; assay type: functional
[16] = inhibitors of SNCA 5'UTR-driven reporter translation, confirmation, H4 neuroglioma cells, luminescence (AID 1988); assay type: functional, cell-based

Chain of FAD-linked sulfhydryl oxidase ALR (P55789 whole entry): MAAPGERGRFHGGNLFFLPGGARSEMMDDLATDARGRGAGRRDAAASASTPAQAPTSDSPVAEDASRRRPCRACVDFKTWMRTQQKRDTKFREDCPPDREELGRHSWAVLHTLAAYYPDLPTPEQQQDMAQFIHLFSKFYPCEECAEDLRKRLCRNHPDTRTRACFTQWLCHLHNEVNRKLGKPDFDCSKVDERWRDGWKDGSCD

SC1=NC2(CCCCC2)NN1c1ccccc1
AC50 [1]: 1.79 µM (active)

Cn1c(S)nnc1CCNC(=O)OC(C)(C)C
AC50 [1]: 2.79 µM (active)

O=C(CCc1nc(O)c2ccccc2n1)Nc1ccc(F)cc1
IC50 [2]: > 79 µM (inactive)

Cc1ccccc1C(=O)OCn1nnc2ccccc2c1=O
EC50 [3]: > 112 µM (not active) | EC50 [4]: 16.2 µM (active)

COc1cccc(N2CCN(Cc3ccc(Cl)cc3)CC2)c1
EC50 [3]: > 112 µM (not active) | EC50 [4]: > 112 µM (not active)

COCCNC(=O)COC(=O)c1ccc(OCC(=O)Nc2ccccc2OC)c(OC)c1
IC50 [2]: > 79 µM (inactive)

Cc1cc(F)ccc1NC(=O)c1cc(S(=O)(=O)N2CCOCC2)cn1C
EC50 [3]: > 112 µM (not active) | EC50 [4]: > 112 µM (not active)

O=C1C(Cl)=C(N2CCCCC2)C(=O)N1c1ccccc1
AC50 [5]: 8.22 µM (active) | EC50 [6]: 3.22 µM (active) | IC50 [7]: 66.9 µM (active)

Cc1ccc(S(=O)(=O)N2CCN=C2SCc2cccnc2)cc1
AC50 [1]: 0.046 µM (active)

CC1Cc2nc(SCC(=O)N3CCCc4ccccc43)n(C)c(=O)c2S1 (stereo not given)
EC50 [3]: > 112 µM (not active) | EC50 [4]: > 112 µM (not active)

O=C(CNC(=O)c1ccccc1F)N/N=C/c1cc(Br)ccc1OC(=O)/C=C/c1ccco1
IC50 [2]: > 79 µM (inactive)

CC(C)=NNc1nc(-c2ccccc2)cs1
AC50 [1]: 0.601 µM (active)

COc1ccc(CN2CCN(C(=O)Cn3nc(C(=O)O)c4ccccc4c3=O)CC2)cc1F
EC50 [3]: > 112 µM (not active) | EC50 [4]: 7.7 µM (active)

O=C(CCN1C(=O)C2C3CCC(C3)C2C1=O)Nc1ccccc1Cl (stereo not given)
EC50 [3]: > 112 µM (not active) | EC50 [4]: > 112 µM (not active)

COc1ccc(CNC(=O)C[C@H]2C[C@H](C(=O)N3CCOCC3)[C@@]3(CCC4CCCC4)c4[nH]c5ccc(Cl)cc5c4CCN3C2=O)cc1OC
IC50 [8]: 1.71 µM (active) | IC50 [9]: 0.878 µM (active)

Cn1c(SCc2cccc(Cl)c2)nc(C(F)(F)F)cc1=O
IC50 [8]: 18.4 µM (active) | IC50 [9]: 12.2 µM (active)

O=C(COC(=O)c1cc([N+](=O)[O-])ccc1N1CCOCC1)Nc1ccc(Cl)cc1
IC50 [8]: 2.23 µM (active) | IC50 [9]: 1.96 µM (active)

O=C(Nc1ccn(Cc2ccc(F)cc2)n1)c1ccncc1
EC50 [3]: > 112 µM (not active) | EC50 [4]: > 112 µM (not active)

COc1cc(C(=O)Nc2ccc(NC(=O)c3ccco3)nc2)cc(OC)c1OC
IC50 [2]: 21.4 µM (active)

CCCCOc1ccc(C(=O)NCC(=O)N(C)Cc2nc(O)c3ccccc3n2)cc1
IC50 [2]: > 79 µM (inactive)

Cc1cc(C)c([N+](=O)[O-])cc1NCC(=O)N1CCN(c2ccccc2)CC1
IC50 [8]: 9.53 µM (active) | IC50 [9]: 6.55 µM (active)

O=C(NCc1cccnc1)C(=O)NCC(c1ccco1)N1CCN(c2ccccc2)CC1 (stereo not given)
AC50 [1]: 2.78 µM (active)

COc1cc(/C=N/NC(=O)c2cccnc2)ccc1OS(=O)(=O)c1ccc(F)cc1
IC50 [2]: 7.92 µM (active)

Cc1cccc(-n2c(CCn3nc(C)c([N+](=O)[O-])c3C)n[nH]c2=S)c1
AC50 [1]: 4.3 µM (active)

CCCc1cc(=O)oc2cc(OCc3ccc(C(=O)O)cc3)ccc12
AC50 [10]: 3.75 µM (active)

COCCCNC(=O)/C(C#N)=C1\N=C(NC(=O)c2cccs2)c2ccccc21
IC50 [2]: > 79 µM (inactive)

O=C(NC12CC3CC(CC(C3)C1)C2)c1cc([N+](=O)[O-])ccc1N1CCOCC1
IC50 [8]: 24.9 µM (inactive) | IC50 [9]: 14.7 µM (active)

COc1cccc(-c2ccc(SCC(=O)N3CCN(c4ccccc4)CC3)nn2)c1
IC50 [2]: 16.1 µM (active)

O=C(O)CN1C(=O)/C(=C2\SC(=S)N(C(Cc3ccccc3)C(=O)O)C2=O)c2ccccc21 (stereo not given)
IC50 [7]: 42 µM (active) | IC50 [11]: > 66 µM (inactive) | IC50 [12]: > 66 µM (inactive)

CC1Cc2ccccc2N1C(=O)Cn1nc(C(=O)O)c2ccccc2c1=O (stereo not given)
IC50 [2]: 13.7 µM (active)

COc1ccccc1C(=O)Nc1ccc(C2=NNC(=O)CC2C)cc1 (stereo not given)
EC50 [3]: > 112 µM (not active) | EC50 [4]: 0.361 µM (active)

CCOC(=O)CCSc1nc2c(c(C(F)(F)F)c1C#N)CCC2
IC50 [8]: 7.74 µM (active) | IC50 [9]: 8.57 µM (active)

CCN(CC(=O)Nc1c(F)cccc1F)C(=O)Cc1nnc(O)c2ccccc12
EC50 [13]: > 195 µM (not active) | IC50 [2]: > 79 µM (inactive)

Cc1ccc(S(=O)(=O)N2CCN(C(=O)COC(=O)c3cc([N+](=O)[O-])ccc3NCCO)CC2)c(C)c1
IC50 [8]: 6.04 µM (active) | IC50 [9]: 2.7 µM (active)

NC(=O)N1CCN(C(=O)c2ccco2)CC1
EC50 [3]: > 112 µM (not active) | EC50 [4]: > 112 µM (not active)

Cc1noc(NS(=O)(=O)c2ccc(NC(=O)c3cnc4n(c3=O)CCS4)cc2)c1C
AC50 [1]: 0.255 µM (active)

COc1cc2nc(C3CCC3)nc(N3CCN(c4ccccn4)CC3)c2cc1OC
EC50 [14]: 15.1 µM (active) | EC50 [15]: 14.6 µM (active) | EC50 [16]: 15.2 µM (active) | IC50 [2]: > 79 µM (inactive)

CC1CCCN(C(=O)COC(=O)c2cc([N+](=O)[O-])ccc2N2CCOCC2)C1 (stereo not given)
IC50 [8]: 2.27 µM (active) | IC50 [9]: 1.91 µM (active)

COc1ccc(Cl)cc1-c1cc(C(=O)NCc2ccc(C(F)(F)F)cc2)[nH]n1
IC50 [8]: 15.4 µM (active) | IC50 [9]: 17.1 µM (active)

— ChEMBL document CHEMBL1201862, “PubChem BioAssay data set” (2004)
